# Assay results taken from US20070282004A1, “Use of a Cyclopentenone Prostaglandin for Delaying for the Onset and/or Preventing the Continuation of Labour” (Imperial College Innovations Limited, priority 2003, published 2007).
# “Also recorded” adds a separate entry of the source.
# Legend:
# NF-κB [1] = test: NF-κB-dependent luciferase reporter (κB.BG.Luc) in myometrial cells; type: cell-based, human; settings: for IL-1β-induced NF-κB transcriptional activity (κB.BG.Luc reporter): treated 2 h, IL-1β 1 ng/ml 6 h
# Protocol: Myometrial cells were transiently transfected with the NFκB-dependent reporter construct κB.BG.Luc, treated with 15dPGJ2 or vehicle for 2 h, ±IL-1β (1 ng/ml) for 6 h. […] Values are normalised for b-gal reporter activity. (NS=nonstimulated).
# Myometrial cells were transfected with […] κB.BG.Luc reporter and 200 ng PPAR-γ expression vector and treated with 15d-PGJ2 for 2 h followed by IL-1β (1 ng/ml) for 6 h. Values are normalised for β-galactosidase reporter activity. (NS=nonstimulated).
# (§1) Myometrial tissue was collected at term from the upper margin of uterine incision at the time of lower segment caesarean section either prior to the onset of labour (L−) or […] (L+). L+ samples were collected by Dr Mark Johnson and Dr S Soorrana at Chelsea & Westminster Hospital. Myometrial tissue was dissected, rinsed in PBS, and digested in serum-free DMEM containing 15 mg/ml collagenase 1A (Sigma), 15 mg/ml collagenase X, and 50 mg/ml bovine serum albumin for 45 min at 37° C. The cell suspension was filtered through a cell strainer, centrifuged at 400 g for 5 min, and the pellet re-suspended and plated out in DMEM, 10% FCS (Helena BioScience), 1% L-glutainine, 1% penicillin-streptomycin. Cells were used between passage numbers 1-4.
# pGL3.6κB.BG.luc: a NF-κB-dependent reporter construct with 6 copies of the NF-κB binding site.
# Cells were co-transfected with the renilla vector pRL-CMV or β-galactosidase vector pCH110 as internal controls for transfection efficiencies.
# NF-κB [2] = target: T1, NF-κB (Homo sapiens, UniProt P19838+Q04206); test: EMSA of NF-κB DNA binding in nuclear extracts of treated myometrial cells; type: cell-based; settings: for IL-1β-induced NF-κB DNA binding (EMSA): myometrial cells, treated 2 h, then IL-1β 15 min
# T1 construct: nuclear protein extracts from myometrial cells; endogenous in cells; host or cells: primary human myometrial cells (term, passage 1-4)
# Protocol: as §1
# (§2) Nuclear and cytosolic protein extracts were obtained from cultured amnion cells as described by Schreiber et al (1989). For nuclear/cytosolic fractionation, confluent cell monolayers were scraped and lysed using a buffer containing 10 mM HEPES, 10 mM KCl, 0.1 mM EDTA, 0.1 mM EGTA, 2 mM DTT, 1% (v/v) NP-40 and complete protease inhibitor tablets (CPIs, Roche), diluted to manufacturer's instructions. Cell lysates were incubated on ice for 10 min and NP-40 added to a final concentration of 1% (v/v). Lysates were vortexed for 10 secs and centrifuged for 30 secs at 4° C., 12000 g. The supernatants were retained as the cytosolic protein extracts. The pellets were resuspended in buffer containing 10 mM HEPES, 10 mM KCl, 0.1 mM EDTA, 0.1 mM EGTA, 2 mM DTT, 400 mM NaCl, 1% NP-40 (v/v) and CPIs. Samples were shaken vigorously for 15 min in an ice bath. The nuclear protein extracts were obtained in the supernatant following a 5 min centrifugation at 4° C., 12000 g.
# Sense and antisense strands (175 nmole/ml each) were incubated in annealing buffer (10 mM Tris-HCl pH7.5, 100 mM NaCl, 1 mM EDTA) for 10 min at 65° C., and allowed to cool at room temperature for 2 h. 3.5 pmole double-stranded oligonucleotides were end-labelled with 0.37 MBq ^32P(γATP) by incubating for 30 min at 37° C. with T4 polynucleotide kinase. Labelled oligonucleotides were recovered by centrifugation at 3000 rpm for 2 min through MicroSpin G-25 or G-50 sephadex columns (Amersham Biosciences).
# 3-5 μg protein extracts were incubated on ice for 1 h with non-radiolabelled non-specific oligonucleotide (poly(dI-dC) or Oct-1) in a binding buffer (20% (v/V) glycerol, 5 mM MgCl2, 2 mM EDTA, 50 mM Tris-HCl pH7.5, 250 mM NaCl, 2 mM DTT), followed by a 45 min incubation with 0.035 pmole ^32P(γ(ATP)-end labelled oligonucleotide probes:
# Oct-1 or SP-1 consensus sequences were used as a controls for a NF-κB-specific effect. The resulting protein/DNA complexes were separated in a 4% acrylamide gel, the gel dried under vacuum at 80° C. and exposed to X-ray film. For supershift analysis, samples were incubated with 2 μg antibodies for 30 min on ice prior to incubation with oligonucleotides. Non-radio-labelled oligonucleotides were used at 100-fold molar excess for specific and non-specific competition for DNA binding. Reagents for EMSA were obtained from Promega Life Sciences, Delta House, Chilworth Research Centre, Southampton SO16 7NS, United Kingdom.
# NF-κB [3] = test: Western immunoblot of p65, p50, IκB in myometrial cell extracts; type: cell-based, human; settings: myometrial cells; for IL-1β-induced p65 nuclear translocation: treated 2 h
# Protocol: Western immunoblots of nuclear or cytosolic protein extracts from (A) myometrial cells, (B) L− amnion cells, and (C) L+ amnion cells treated with 15dPGJ2 or vehicle for 2 h±IL-1β stimulation (15 min). Blots probed with antibodies against p65, p50 or IκBα.
# Western immunoblots of nuclear or cytosolic protein extracts from myometrial cells treated with PGA1 or vehicle for 2 h followed by IL-1β stimulation (15 min). Blots probed with antibodies against p65 or IκBa.
# Western immunoblots of cytosolic extracts from myometrial cells (A) treated with 15dPGJ2 for 2h±IL1b for 15 min; probed for IKK, and (B) treated with […] 15dPGJ2, […] MG132 or vehicle for 2 h, ±IL-1β for 15 min; probed for IκBα.
# (A) NF-κB-DNA binding was measured by EMSA in nuclear protein extracts from myometrial cells pre-treated with vehicle, 15d-PGJ2 or PGA1 for 2 h, followed by stimulation with IL-1β (1 ng/ml) for 15 min. Antibodies against p50 and p65 were used for supershift analysis. (B) Myometrial cells were transiently transfected with a NF-κB-LUC reporter and a β-gal reporter plasmid, pre-treated with vehicle or PGA1 for 2 h, and stimulated with IL-1β (1 ng/ml) for 6 h. Luciferase activity was normalized for β-gal reporter readout. Values are presented as the mean±SEM obtained for each treatment done in triplicate. Western blot analysis of nuclear p65 and p50 expression in myometrial cells treated with (C) PGA1 or (D) 15d-PGJ2 for 2 h, followed by stimulation with IL-1β (1 ng/ml) for 15 min. (E) Western blot analysis of whole cell lysates from myometrial cells treated with 15d-PGJ2 or 9,10-dihydro-15d-PGJ2 for 2 h, followed by stimulation with IL-1β (1 ng/ml) for 15 min. Membranes were probed with antibodies against p65 and Ser 536-phosphorylated p65.
# as §1, §2
# Protein samples (20-70 μg) were mixed with Laemmli sample buffer (1:1) containing β-mercaptoethanol (5%), and boiled for 5 min. Proteins were then separated by SDS-PAGE (12-14% gels) and transferred onto PVDF membrane (Amersham Pharmacia Biotech). The membranes were blocked overnight in 5% non-fat milk prepared in PBS-T buffer, at 4° C. The blots were incubated with the primary antibody in 1% non-fat milk in PBS-T buffer for 1 h, and washed three times (10 min each) in PBS-T with vigorous shaking. […]
# T1 sequence (Q04206 whole entry): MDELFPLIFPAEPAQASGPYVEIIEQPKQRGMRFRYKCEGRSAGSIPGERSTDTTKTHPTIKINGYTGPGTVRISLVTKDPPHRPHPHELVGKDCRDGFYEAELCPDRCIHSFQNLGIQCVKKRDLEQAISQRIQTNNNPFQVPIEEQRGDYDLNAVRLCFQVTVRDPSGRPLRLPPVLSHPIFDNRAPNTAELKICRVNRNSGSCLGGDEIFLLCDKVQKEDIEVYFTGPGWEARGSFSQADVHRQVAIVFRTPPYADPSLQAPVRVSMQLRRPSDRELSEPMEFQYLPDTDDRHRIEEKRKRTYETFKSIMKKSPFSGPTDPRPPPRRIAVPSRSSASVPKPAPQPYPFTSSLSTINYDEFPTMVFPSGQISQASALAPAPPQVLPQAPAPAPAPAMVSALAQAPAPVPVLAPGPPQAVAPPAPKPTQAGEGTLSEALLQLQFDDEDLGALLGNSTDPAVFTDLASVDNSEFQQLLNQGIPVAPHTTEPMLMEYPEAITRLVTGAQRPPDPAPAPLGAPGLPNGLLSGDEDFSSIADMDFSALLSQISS
# T1 sequence (P19838 1-433 limits assumed): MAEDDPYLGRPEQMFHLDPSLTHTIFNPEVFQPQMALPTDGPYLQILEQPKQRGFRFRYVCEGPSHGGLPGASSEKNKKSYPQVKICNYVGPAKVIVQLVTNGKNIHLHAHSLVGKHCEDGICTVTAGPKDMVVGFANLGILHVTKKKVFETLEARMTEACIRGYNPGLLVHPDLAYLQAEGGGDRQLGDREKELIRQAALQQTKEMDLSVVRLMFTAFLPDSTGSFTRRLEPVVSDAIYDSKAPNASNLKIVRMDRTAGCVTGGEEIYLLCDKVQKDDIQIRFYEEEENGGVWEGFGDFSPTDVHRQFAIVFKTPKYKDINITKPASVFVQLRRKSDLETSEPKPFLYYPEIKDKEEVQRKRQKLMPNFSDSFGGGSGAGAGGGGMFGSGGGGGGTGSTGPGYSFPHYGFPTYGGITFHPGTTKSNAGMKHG
Structure (SMILES),Effect of PPARγ overexpression on 15d-PGJ2 inhibition of NF-κB transcriptional activity (NF-κB [1]; 200 ng PPAR-γ expression vector),IL-1β-induced NF-κB transcriptional activity (κB.BG.Luc reporter) (NF-κB [1]),IL-1β-induced NF-κB transcriptional activity (κB.BG.Luc reporter) (NF-κB [1]; listed as 15dPGJ2),Protein binding to a consensus Oct-1 or Sp-1 probe (control) (NF-κB [2]; myometrial and amnion cells),IL-1β-induced NF-κB DNA binding (EMSA) (NF-κB [2]),IL-1β-induced NF-κB DNA binding (EMSA) (NF-κB [2]; listed as 15dPGJ2),IL-1β-induced IκBα degradation (NF-κB [3]),IL-1β-induced IκBβ degradation (NF-κB [3]),IL-1β-induced p50 phosphorylation (NF-κB [3]),IκBα phosphorylation (NF-κB [3]),"Accumulation of phosphorylated IκBα (NF-κB [3]; 2 h, IL-1β 15 min)",IL-1β-induced p65 nuclear translocation (NF-κB [3]; IL-1β 15 min),"IL-1β-induced p65 nuclear translocation (NF-κB [3]; IL-1β 15 min, listed as 15dPGJ2)","Reproduction of the effects of 15d-PGJ2 on NF-κB (incl. Ser 536-phosphorylated p65) (NF-κB [3]; 2 h, IL-1β 15 min, similar in amnion epithelial cells)"
"CCCCCC=CC=C1C(=O)C=C[C@@H]1CC=CCCCC(=O)O [15d-PGJ2, 15-deoxy-Δ^12,14prostaglandin J2]",does not potentiate,reducing reporter activity to basal levels; also recorded: inhibited,inhibition,unaffected,inhibited IL1-β-induced NF-κB DNA binding in a dose-dependent manner,inhibition,inhibition,inhibition,inhibition,inhibits,not detected,inhibited,inhibition,
"CCCCC[C@H](O)/C=C/[C@H]1C=CC(=O)[C@@H]1CCCCCCC(=O)O [PGA1, prostaglandin A1]",,reduced to basal levels,,,inhibition,,inhibition,,,,,inhibition; also recorded: inhibited,,shares the effect of 15d-PGJ2
